{"source": "patent US9476099B2", "about": "(TRUSTEES OF DARTMOUTH COLLEGE, priority 2012, dated 2016)", "tested_on": "gene promoters in NT2/D1-R1 control and DNMT3B knockdown cells", "assay": "Genome-wide promoter methylation analysis, HumanMethylation27 BeadChip (Table 15)", "type": "cell-based, human", "conditions": "sh-ctrl + 5aza", "experimental": "DNA methylation analysis was performed in samples in triplicate using the […] […] assay with the HumanMethylation27 BeadChip ([…]) and the BeadChip was scanned on the BeadArray Reader ([…]), according to the manufacturer's instructions. Raw data was normalized and analyzed with Genome Studio software ([…]). The HumanMethylation27 BeadChip assays 27,578 CpGs covering more than 14,000 genes, mostly from promoter regions. […] Hierarchical clustering was performed as stated above. HumanMethylation27 BeadChip data and gene expression microarray data were submitted to NCBI GEO.", "data": [{"molecule": "Nc1ncn([C@H]2C[C@H](O)[C@@H](CO)O2)c(=O)n1", "note": "[5aza]", "values": [{"measurement": "ABCC1 cg20158248 promoter methylation Mean", "result": 0.480}, {"measurement": "ACP1 cg27226618 promoter methylation Mean", "result": 0.786}, {"measurement": "ADCY4 cg16761581 promoter methylation Mean", "result": 0.609}, {"measurement": "ADRA2A cg26926521 promoter methylation Mean", "result": 0.939}, {"measurement": "ALDH1A3 cg19224278 promoter methylation Mean", "result": 0.443}, {"measurement": "ALKBH4 cg07404418 promoter methylation Mean", "result": 0.458}, {"measurement": "ALX4 cg04549333 promoter methylation Mean", "result": 1.136}, {"measurement": "ALX4 cg04970352 promoter methylation Mean", "result": 0.964}, {"measurement": "ALX4 cg19358442 promoter methylation Mean", "result": 1.126}, {"measurement": "ANKRD13C cg19342782 promoter methylation Mean", "result": 0.544}, {"measurement": "ANKRD45 cg15883716 promoter methylation Mean", "result": 1.017}, {"measurement": "APC cg16970232 promoter methylation Mean", "result": 0.424}, {"measurement": "BLOC1S2 cg26610808 promoter methylation Mean", "result": 0.575}, {"measurement": "BTBD5 cg00660989 promoter methylation Mean", "result": 0.347}, {"measurement": "BTNL8 cg24024214 promoter methylation Mean", "result": 1.068}, {"measurement": "C1QL1 cg13818573 promoter methylation Mean", "result": 0.460}, {"measurement": "C1orf188 cg15731815 promoter methylation Mean", "result": 0.541}, {"measurement": "C10orf107 cg16063112 promoter methylation Mean", "result": 0.354}, {"measurement": "C14orf173 cg24404909 promoter methylation Mean", "result": 0.379}, {"measurement": "C16orf60 cg17858663 promoter methylation Mean", "result": 0.245}, {"measurement": "C19orf4 cg07379574 promoter methylation Mean", "result": 1.078}, {"measurement": "C19orf22 cg18022193 promoter methylation Mean", "result": 0.288}, {"measurement": "CAMK1G cg27337148 promoter methylation Mean", "result": 1.021}, {"measurement": "CD58 cg21039631 promoter methylation Mean", "result": 0.251}, {"measurement": "CDKN2B cg04675937 promoter methylation Mean", "result": 0.256}, {"measurement": "CDKN2B cg08390209 promoter methylation Mean", "result": 0.280}, {"measurement": "CDX1 cg15452204 promoter methylation Mean", "result": 0.595}, {"measurement": "CEACAM4 cg10237469 promoter methylation Mean", "result": 0.718}, {"measurement": "CEACAM7 cg19623751 promoter methylation Mean", "result": 0.886}, {"measurement": "CGI-38 cg13067215 promoter methylation Mean", "result": 0.513}, {"measurement": "CHD5 cg00282347 promoter methylation Mean", "result": 1.005}, {"measurement": "CHMP2A cg14042128 promoter methylation Mean", "result": 0.541}, {"measurement": "COL11A1 cg12884406 promoter methylation Mean", "result": 0.415}, {"measurement": "COPS7B cg05422352 promoter methylation Mean", "result": 0.579}, {"measurement": "CRSP7 cg24459023 promoter methylation Mean", "result": 0.301}, {"measurement": "CSPG3 cg06952310 promoter methylation Mean", "result": 0.480}, {"measurement": "CSTF2T cg06712026 promoter methylation Mean", "result": 0.431}, {"measurement": "CTAGE1 cg02847216 promoter methylation Mean", "result": 0.955}, {"measurement": "CUL3 cg09509863 promoter methylation Mean", "result": 0.411}, {"measurement": "CYP4F12 cg25813714 promoter methylation Mean", "result": 0.959}, {"measurement": "DCTD cg14892066 promoter methylation Mean", "result": 0.243}, {"measurement": "DDEF2 cg22190705 promoter methylation Mean", "result": 0.329}, {"measurement": "DEFB118 cg03014957 promoter methylation Mean", "result": 0.690}, {"measurement": "DNASE2 cg07955356 promoter methylation Mean", "result": 0.275}, {"measurement": "DPH1 cg11516377 promoter methylation Mean", "result": 0.465}, {"measurement": "DYRK1B cg18851831 promoter methylation Mean", "result": 1.262}, {"measurement": "EIF2B3 cg16604218 promoter methylation Mean", "result": 0.543}, {"measurement": "ELSPBP1 cg19404979 promoter methylation Mean", "result": 0.655}, {"measurement": "ENOSF1 cg16112050 promoter methylation Mean", "result": 1.028}, {"measurement": "EPN3 cg24006361 promoter methylation Mean", "result": 1.019}, {"measurement": "EREG cg19308222 promoter methylation Mean", "result": 0.356}, {"measurement": "FAM111B cg13864937 promoter methylation Mean", "result": 0.508}, {"measurement": "FLJ10726 cg14145762 promoter methylation Mean", "result": 0.436}, {"measurement": "FLJ11200 cg09001953 promoter methylation Mean", "result": 0.482}, {"measurement": "FLJ23514 cg16404106 promoter methylation Mean", "result": 0.628}, {"measurement": "FLRT3 cg23127998 promoter methylation Mean", "result": 0.397}, {"measurement": "FLT3LG cg01667384 promoter methylation Mean", "result": 0.249}, {"measurement": "FXYD7 cg22392666 promoter methylation Mean", "result": 1.028}, {"measurement": "G10 cg02798801 promoter methylation Mean", "result": 0.608}, {"measurement": "GABRB2 cg16509658 promoter methylation Mean", "result": 0.219}, {"measurement": "GALNT4 cg16606638 promoter methylation Mean", "result": 0.265}, {"measurement": "GAS8 cg03634997 promoter methylation Mean", "result": 1.082}, {"measurement": "GBX2 cg23095584 promoter methylation Mean", "result": 0.468}, {"measurement": "GNAS cg27661264 promoter methylation Mean", "result": 0.565}, {"measurement": "GRB10 cg26163537 promoter methylation Mean", "result": 0.312}, {"measurement": "GUP1 cg24938727 promoter methylation Mean", "result": 0.640}, {"measurement": "HACE1 cg23047681 promoter methylation Mean", "result": 0.204}, {"measurement": "HGF cg06745740 promoter methylation Mean", "result": 0.594}, {"measurement": "HNRNPG-T cg22062068 promoter methylation Mean", "result": 0.977}, {"measurement": "HOXB4 cg25145670 promoter methylation Mean", "result": 0.488}, {"measurement": "HRASLS cg08376864 promoter methylation Mean", "result": 0.853}, {"measurement": "HYPK cg00480356 promoter methylation Mean", "result": 0.818}, {"measurement": "ICAM1 cg08607082 promoter methylation Mean", "result": 0.244}, {"measurement": "IFI16 cg07463059 promoter methylation Mean", "result": 0.582}, {"measurement": "IFI44 cg07107453 promoter methylation Mean", "result": 0.513}, {"measurement": "IFNA2 cg13235447 promoter methylation Mean", "result": 0.697}, {"measurement": "IGF2AS cg20792294 promoter methylation Mean", "result": 0.323}, {"measurement": "IGFBP5 cg19008649 promoter methylation Mean", "result": 0.370}, {"measurement": "IGSF9 cg19111262 promoter methylation Mean", "result": 0.826}, {"measurement": "IHH cg17178336 promoter methylation Mean", "result": 0.709}, {"measurement": "IL2RG cg01361446 promoter methylation Mean", "result": 1.103}, {"measurement": "IL18 cg11304234 promoter methylation Mean", "result": 0.646}, {"measurement": "INPP5B cg10784030 promoter methylation Mean", "result": 0.366}, {"measurement": "ITGB3BP cg18464559 promoter methylation Mean", "result": 0.168}, {"measurement": "KA21 cg23776012 promoter methylation Mean", "result": 0.641}, {"measurement": "KCNA3 cg03483626 promoter methylation Mean", "result": 0.326}, {"measurement": "KCNAB3 cg14918082 promoter methylation Mean", "result": 0.852}, {"measurement": "KCNB2 cg11754206 promoter methylation Mean", "result": 0.551}, {"measurement": "KCNK10 cg17671157 promoter methylation Mean", "result": 1.059}, {"measurement": "KLK7 cg19953406 promoter methylation Mean", "result": 0.983}, {"measurement": "LAMB1 cg10064162 promoter methylation Mean", "result": 0.426}, {"measurement": "LDHD cg24429836 promoter methylation Mean", "result": 0.760}, {"measurement": "LIG4 cg08216792 promoter methylation Mean", "result": 0.356}, {"measurement": "LYNX1 cg24046110 promoter methylation Mean", "result": 0.430}, {"measurement": "MC3R cg19226099 promoter methylation Mean", "result": 1.057}, {"measurement": "MGC26856 cg07684809 promoter methylation Mean", "result": 0.489}, {"measurement": "MLNR cg02620013 promoter methylation Mean", "result": 0.755}, {"measurement": "MPHOSPH6 cg16119274 promoter methylation Mean", "result": 0.444}, {"measurement": "MSX1 cg03199651 promoter methylation Mean", "result": 0.288}, {"measurement": "MYOD1 cg24322623 promoter methylation Mean", "result": 0.931}, {"measurement": "NCKIPSD cg04244987 promoter methylation Mean", "result": 0.392}, {"measurement": "NDP cg11614809 promoter methylation Mean", "result": 0.756}, {"measurement": "NEFH cg16042149 promoter methylation Mean", "result": 1.041}, {"measurement": "NEIL2 cg14329976 promoter methylation Mean", "result": 0.360}, {"measurement": "NME5 cg13707560 promoter methylation Mean", "result": 1.225}, {"measurement": "NME5 cg25507001 promoter methylation Mean", "result": 0.889}, {"measurement": "NOC3L cg07270175 promoter methylation Mean", "result": 0.614}, {"measurement": "NOX4 cg17063929 promoter methylation Mean", "result": 0.483}, {"measurement": "NPAS1 cg09628601 promoter methylation Mean", "result": 0.553}, {"measurement": "NRXN1 cg10917619 promoter methylation Mean", "result": 0.867}, {"measurement": "OR1N1 cg14598387 promoter methylation Mean", "result": 0.606}, {"measurement": "OR10J1 cg15700197 promoter methylation Mean", "result": 0.679}, {"measurement": "PACS1 cg01663295 promoter methylation Mean", "result": 0.625}, {"measurement": "PCDHB13 cg14592099 promoter methylation Mean", "result": 0.747}, {"measurement": "PCDHB13 cg24435562 promoter methylation Mean", "result": 0.441}, {"measurement": "PCDHGA12 cg11647681 promoter methylation Mean", "result": 0.936}, {"measurement": "PCGF5 cg17001035 promoter methylation Mean", "result": 0.893}, {"measurement": "PEPD cg06546607 promoter methylation Mean", "result": 0.266}, {"measurement": "PEX5L cg02430692 promoter methylation Mean", "result": 0.511}, {"measurement": "PI3 cg02442161 promoter methylation Mean", "result": 0.857}, {"measurement": "PIGL cg05310071 promoter methylation Mean", "result": 0.351}, {"measurement": "POU3F3 cg20291049 promoter methylation Mean", "result": 0.387}, {"measurement": "POU4F2 cg24199834 promoter methylation Mean", "result": 0.287}, {"measurement": "PTCH2 cg15329642 promoter methylation Mean", "result": 0.789}, {"measurement": "PTPN5 cg17233601 promoter methylation Mean", "result": 0.801}, {"measurement": "RASGEF1A cg07871503 promoter methylation Mean", "result": 0.945}, {"measurement": "RBPSUHL cg21835643 promoter methylation Mean", "result": 1.018}, {"measurement": "REM1 cg12153542 promoter methylation Mean", "result": 0.664}, {"measurement": "REM1 cg26299767 promoter methylation Mean", "result": 0.727}, {"measurement": "RLN3R1 cg12238343 promoter methylation Mean", "result": 0.732}, {"measurement": "RPL39L cg07441272 promoter methylation Mean", "result": 0.691}, {"measurement": "RRM2B cg07125123 promoter methylation Mean", "result": 0.370}, {"measurement": "RYR1 cg05471297 promoter methylation Mean", "result": 0.480}, {"measurement": "S100A12 cg02813121 promoter methylation Mean", "result": 0.941}, {"measurement": "SCUBE2 cg01081263 promoter methylation Mean", "result": 0.693}, {"measurement": "SCUBE2 cg19237879 promoter methylation Mean", "result": 0.670}, {"measurement": "SEMA3E cg08274234 promoter methylation Mean", "result": 0.306}, {"measurement": "SEMA6C cg01958916 promoter methylation Mean", "result": 0.267}, {"measurement": "SEPN1 cg21187265 promoter methylation Mean", "result": 0.387}]}]}
